This note sets out measurements from patent EP1978972B1, “USE OF ALKYLGLUCOSIDE ESTERS AS BETA-DEFENSIN INDUCERS” (Pierre Fabre Dermo-Cosmétique, priority 2006, dated 2007).

This data set concerns LL-37. The experiment in a line: Induction of LL-37 gene expression in skin explant, systemic treatment, quantitative RT-PCR. The class given is cell-based, human. The conditions noted are these: 30 µg/ml. From the text:
Il est connu de WO 97/45101 que les esters d'α-alkylglucoside peuvent être utilisés comme agent anti-microbien et/ou anti-fongique pour agir en tant que conservateur dans une composition, pour la préserver d'un développement microbien. […]

laurate de butylglucoside [αβ-LBG brut]: the “FI, LL-37” value was 6 (2 h) and “reste stable jusqu'à 24 h” (up to 24 h, in words).
